Reference: the supplement of paper PMC10307832

Legend:
Test in all cases: relative viability (nuclei count vs DMSO), 5 days (fraction); higher = more cells survive
Bleomycin + Foretinib = compound: CC1=C(N=C(N=C1N)[C@H](CC(=O)N)NC[C@@H](C(=O)N)N)C(=O)N[C@@H]([C@H](C2=CN=CN2)OC3C(C(C(C(O3)CO)O)O)OC4C(C(C(C(O4)CO)O)OC(=O)N)O)C(=O)N[C@H](C)[C@H]([C@H](C)C(=O)N[C@@H]([C@@H](C)O)C(=O)NCCC5=NC(=CS5)C6=NC(=CS6)C(=O)NCCC[S+](C)C)O [Bleomycin] + COc1cc2c(Oc3ccc(NC(=O)C4(C(=O)Nc5ccc(F)cc5)CC4)cc3F)ccnc2cc1OCCCN1CCOCC1 [Foretinib] (partner 0.25 µM); conditions: main component drawn
Outline: (§1)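 Five library-drug doses in √10 steps were combined with a fixed anchor-drug dose, or a single drug was given alone, by pin tool to lung cancer cell lines in 1536-well plates the day after seeding. Nuclei were stained and counted after 5 days. Relative viability is the nuclei count in treated wells over that in vehicle wells, taken as the median of duplicate plates.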

Bleomycin + Decitabine = compound: CC1=C(N=C(N=C1N)[C@H](CC(=O)N)NC[C@@H](C(=O)N)N)C(=O)N[C@@H]([C@H](C2=CN=CN2)OC3C(C(C(C(O3)CO)O)O)OC4C(C(C(C(O4)CO)O)OC(=O)N)O)C(=O)N[C@H](C)[C@H]([C@H](C)C(=O)N[C@@H]([C@@H](C)O)C(=O)NCCC5=NC(=CS5)C6=NC(=CS6)C(=O)NCCC[S+](C)C)O [Bleomycin] + Nc1ncn([C@H]2C[C@H](O)[C@@H](CO)O2)c(=O)n1 [Decitabine] (partner 2 µM); conditions: main component drawn
Outline: as §1

Etoposide + Navitoclax = compound: COc1cc([C@@H]2c3cc4c(cc3[C@@H](O[C@@H]3O[C@@H]5CO[C@@H](C)O[C@H]5[C@H](O)[C@H]3O)[C@H]3COC(=O)[C@H]23)OCO4)cc(OC)c1O [Etoposide] + CC1(C)CCC(c2ccc(Cl)cc2)=C(CN2CCN(c3ccc(C(=O)NS(=O)(=O)c4ccc(N[C@H](CCN5CCOCC5)CSc5ccccc5)c(S(=O)(=O)C(F)(F)F)c4)cc3)CC2)C1 [Navitoclax] (partner 0.5 µM)
Outline: as §1

Etoposide + Decitabine = compound: COc1cc([C@@H]2c3cc4c(cc3[C@@H](O[C@@H]3O[C@@H]5CO[C@@H](C)O[C@H]5[C@H](O)[C@H]3O)[C@H]3COC(=O)[C@H]23)OCO4)cc(OC)c1O [Etoposide] + Nc1ncn([C@H]2C[C@H](O)[C@@H](CO)O2)c(=O)n1 [Decitabine] (partner 2 µM)
Outline: as §1

Cell Line	relative viability (Bleomycin + Foretinib; first compound 0.01 µM)	relative viability (Bleomycin + Foretinib; first compound 0.03162 µM)	relative viability (Bleomycin + Foretinib; first compound 0.1 µM)	relative viability (Bleomycin + Foretinib; first compound 0.3162 µM)	relative viability (Bleomycin + Foretinib; first compound 1 µM)	relative viability (Bleomycin + Decitabine; first compound 0.01 µM)	relative viability (Bleomycin + Decitabine; first compound 0.03162 µM)	relative viability (Bleomycin + Decitabine; first compound 0.1 µM)	relative viability (Bleomycin + Decitabine; first compound 0.3162 µM)	relative viability (Bleomycin + Decitabine; first compound 1 µM)	relative viability (Etoposide + Navitoclax; first compound 0.01 µM)	relative viability (Etoposide + Navitoclax; first compound 0.03162 µM)	relative viability (Etoposide + Navitoclax; first compound 0.1 µM)	relative viability (Etoposide + Navitoclax; first compound 0.3162 µM)	relative viability (Etoposide + Navitoclax; first compound 1 µM)	relative viability (Etoposide + Decitabine; first compound 0.01 µM)	relative viability (Etoposide + Decitabine; first compound 0.03162 µM)	relative viability (Etoposide + Decitabine; first compound 0.1 µM)	relative viability (Etoposide + Decitabine; first compound 0.3162 µM)	relative viability (Etoposide + Decitabine; first compound 1 µM)
H3255	0.705	0.813	0.699	0.553	0.432	0.582	0.631	0.586	0.414	0.342	0.538	0.556	0.334	0.348	0.14	0.547	0.94	0.417	0.474	0.318
SK-MES-1	0.907	0.846	0.765	0.357	0.237	0.321	0.356	0.305	0.177	0.164	1.14	1.23	0.913	0.532	0.211	0.344	0.481	0.35	0.238	0.199
NCI-H1650	0.718	0.393	0.254	0.188	0.181	0.295	0.253	0.163	0.184	0.146	1.25	1.19	0.885	0.353	0.309	0.346	0.314	0.355	0.195	0.182
NCI-H2126	1.17	1.26	1.23	0.903	0.491	0.626	0.621	0.601	0.567	0.566	0.893	0.917	0.49	0.769	0.448	0.584	0.636	0.486	0.476	0.323
HCC-366	0.872	0.702	0.337	0.0868	0.0636	0.242	0.26	0.132	0.069	0.0541	0.923	1.05	0.864	0.306	0.0332	0.357	0.334	0.189	0.102	0.0877
NCI-H838	0.617	0.368	0.274	0.201	0.204	0.398	0.369	0.297	0.228	0.478	1.09	1.14	1.19	0.705	0.338	0.445	0.487	0.49	0.367	0.248
LU99A	0.683	0.64	0.503	0.297	0.19	0.77	0.809	0.64	0.448	0.211	0.828	0.898	0.45	0.311	0.189	0.893	0.928	0.504	0.473	0.246
HCC-78	0.533	0.519	0.534	0.399	0.507	0.624	0.702	0.639	0.645	0.423	0.728	0.798	0.341	0.313	0.158	0.669	0.697	0.429	0.317	0.265
NCI-H1755	0.838	0.976	0.948	0.638	0.592	0.667	0.706	0.651	0.561	0.506	0.917	1.03	1.07	0.939	0.882	0.795	0.731	0.712	0.622	0.553
NCI-H322M	0.79	0.951	0.865	0.563	0.401	0.809	0.612	0.635	0.659	0.48	1.29	1.37	1.01	0.886	0.574	0.71	0.696	0.584	0.623	0.563
PC-3 [JPC-3]	0.929	1.24	0.95	0.75	0.541	0.806	0.69	0.704	0.621	0.547	0.784	0.825	0.6	0.787	0.703	0.813	0.921	0.836	0.737	0.692
NCI-H2405	0.929	1.04	0.992	0.796	0.585	0.648	0.655	0.61	0.433	0.309	0.801	0.912	0.532	0.513	0.187	0.732	0.808	0.563	0.519	0.328
NCI-H23	0.699	0.586	0.408	0.247	0.218	0.307	0.265	0.235	0.184	0.177	0.733	0.816	0.502	0.421	0.254	0.333	0.317	0.291	0.235	0.242
NCI-H1793	0.717	0.724	0.734	0.269	0.218	0.483	0.472	0.37	0.175	0.246	0.382	0.564		0.387	0.324		0.497	0.454	0.345	0.236
EKVX	0.707	0.889	0.423	0.335	0.314	0.311	0.323	0.279	0.215	0.215	0.892	0.983	0.759	0.446	0.251	0.281	0.351	0.282	0.31	0.229
HOP-62	0.596	0.458	0.39	0.193	0.127	0.157	0.197	0.137	0.154	0.118	1.07	0.995	0.987	0.598	0.236	0.227	0.199	0.212	0.207	0.179
EPLC-272H	0.61	0.653	0.51	0.17	0.1	0.358	0.343	0.301	0.171	0.129	1.22	1.25	0.71	0.962	0.436	0.339	0.412	0.338	0.328	0.297
RERF-LC-KJ	0.735	0.693	0.633	0.377	0.307	0.418	0.478	0.336	0.213	0.145	0.829	0.94	0.957	0.829	0.488	0.643	0.638	0.54	0.579	0.335
PC-14	0.773	0.566	0.447	0.137	0.0938	0.153	0.158	0.0921	0.0512	0.0367	0.984	1.05	1.19	0.906	0.652	0.242	0.248	0.258	0.182	0.103
COR-L 105	0.895	1	0.952	0.761	0.498	0.594	0.588	0.519	0.419	0.371	0.745	0.802	0.79	0.516	0.586	0.616	0.613	0.567	0.605	0.569
NCI-H3122	0.956	0.99	0.914	0.483	0.357	0.441	0.49	0.358	0.324	0.26	1.05	1.04	1.05	0.877	0.477	0.465	0.536	0.384	0.385	0.249
NCI-H1395	0.886	0.932	0.827	0.672	0.497	0.563	0.593	0.513	0.394	0.305	1.21	1.15	0.893	0.988	0.682	0.726	0.755	0.681	0.667	0.653
NCI-H727	0.902	0.711	0.641		0.705	0.938	0.686	0.893	0.459	0.776	0.439	0.553	0.369	0.488	0.319	1.11	0.985	0.681	0.796	0.63
NCI-H1915	0.929	0.885	0.763	0.431	0.257	0.259	0.237	0.238	0.193	0.141	0.826	0.814	0.815	0.725	0.621	0.267	0.261	0.256	0.26	0.245
NCI-H2087		0.827	0.872	0.205	0.158	0.261	0.27	0.229	0.144	0.183		1.05	0.941	0.727	0.264	0.287	0.3	0.276	0.214	0.102
LXF-289	0.933	0.888	0.804	0.36	0.14	0.381	0.407	0.406	0.24	0.161	0.977	0.971	0.984	0.605	0.174	0.378	0.383	0.306	0.307	0.194
NCI-H520	0.677	0.742	0.743	0.37	0.537	0.501	0.54	0.456	0.424	0.416	0.985	1	1.08	0.951	0.956	0.532	0.493	0.519	0.424	0.376
A549	0.812	0.917	0.635	0.182	0.0665	0.234	0.137	0.218	0.0867	0.0646	1.25	1.04	0.46	0.157	0.0716	0.24	0.326	0.195	0.114	0.0774
NCI-H1944	0.55	0.391	0.384	0.225	0.203	0.365	0.321	0.275	0.252	0.159	1.11	1	0.63	0.593	0.3	0.396	0.459	0.384	0.36	0.296
